Among the data in the supplement of paper PMC12137928 are IC50 cell viability values, retold here.

The assay relates to HCT116. The note with it: 72 h. The gist of the method: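 IC50 and maximal efficacy were derived from four-parameter Hill curve fits. The underlying CellTiter-Glo luminescence was scaled so that vehicle equals 0% and positive control equals -100%, and was then pattern-corrected. HCT116 cells had been seeded in 1536-well plates at 250 per well.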

Where a name gives a salt, the structure may show the parent alone.

Take `COC(=O)N[C@H](C(=O)N1CC2(CC2)C[C@H]1c1nc(-c2ccc3c(c2)C(F)(F)c2cc(-c4ccc5[nH]c([C@@H]6[C@H]7CC[C@H](C7)N6C(=O)[C@@H](NC(=O)OC)C(C)C)nc5c4)ccc2-3)c[nH]1)C(C)C` [Ledipasvir (GS 5885)]: the IC50 cell viability reads like this: (ICRF193 0 nM) > 45.8 µM; (ICRF193 200 nM) > 45.8 µM.
With `Nc1[nH]cnc2ncnc1-2` [Adenine], the IC50 cell viability by setting is: (ICRF193 0 nM) > 45.8 µM; (ICRF193 200 nM) > 45.8 µM.
With `O=C1CCCC(=O)C1C(=O)c1ccc(C(F)(F)F)cc1[N+](=O)[O-]` [Nitisinone], the IC50 cell viability runs as follows: (ICRF193 0 nM) > 45.8 µM; (ICRF193 200 nM) > 45.8 µM.
As to `CC(=O)NC[C@H]1CN(c2ccc(N3CCOCC3)c(F)c2)C(=O)O1` [Linezolid], the IC50 cell viability (ICRF193 0 nM) was > 45.8 µM and the IC50 cell viability (ICRF193 200 nM) is > 45.8 µM.
Regarding `CC(C)[N+](C)(CCOC(=O)C1c2ccccc2Oc2ccccc21)C(C)C` [Propantheline bromide], the IC50 cell viability was > 45.8 µM (ICRF193 0 nM) and > 45.8 µM (ICRF193 200 nM).
For `Cc1oc(=O)oc1COC(=O)[C@@H]1N2C(=O)[C@@H](NC(=O)[C@H](N)c3ccccc3)[C@H]2SC1(C)C` [Lenampicillin hydrochloride], the IC50 cell viability (ICRF193 0 nM) is > 45.8 µM and the IC50 cell viability (ICRF193 200 nM) is > 45.8 µM.
Regarding `O=C(NC[C@H]1CN(c2ccc(N3CCOCC3=O)cc2)C(=O)O1)c1ccc(Cl)s1` [Rivaroxaban], the IC50 cell viability was > 45.8 µM (ICRF193 0 nM) and > 45.8 µM (ICRF193 200 nM).
For the compound `NS(=O)(=O)c1cc(C(=O)NN2C[C@@H]3[C@H]4CC[C@H](C4)[C@@H]3C2)ccc1Cl` [Tripamide], the IC50 cell viability (ICRF193 0 nM) was > 45.8 µM and the IC50 cell viability (ICRF193 200 nM) was > 45.8 µM.
Turning to `CC1=C(C(=O)O)N2C(=O)[C@@H](NC(=O)[C@H](N)c3ccccc3)[C@H]2SC1` [Cephalexin], the IC50 cell viability is, setting by setting: (ICRF193 0 nM) > 45.8 µM; (ICRF193 200 nM) > 45.8 µM.
Take `CC1(C)C[C@@H]1C(=O)N/C(=C\CCCCSC[C@H](N)C(=O)O)C(=O)O` [Cilastatin]: the IC50 cell viability runs as follows: (ICRF193 0 nM) > 45.8 µM; (ICRF193 200 nM) > 45.8 µM.
Regarding `O=C(O)C[C@@H]1CC[C@H](NC(=O)Cc2cccs2)B(O)O1` [Vaborbactam], the IC50 cell viability is > 45.8 µM (ICRF193 0 nM) and > 45.8 µM (ICRF193 200 nM).
Take `C[C@@H]1O[C@@H]1P(=O)(O)O` [FOSFOMYCIN]: the IC50 cell viability runs as follows: (ICRF193 0 nM) > 45.8 µM; (ICRF193 200 nM) > 45.8 µM.
With `O=P(O)(O)C(O)(Cc1cnc2ccccn12)P(=O)(O)O` [Minodronic acid], the IC50 cell viability is, setting by setting: (ICRF193 0 nM) > 45.8 µM; (ICRF193 200 nM) > 45.8 µM.
With `CN1CCN(c2c(F)cc3c(=O)c(C(=O)O)cn(CCF)c3c2F)CC1` [Fleroxacin], the IC50 cell viability was > 45.8 µM (ICRF193 0 nM) and > 45.8 µM (ICRF193 200 nM).
As for `Cc1cc(O)ccc1C(C)(C)C` [P-T-BUTYL-M-CRESOL], the IC50 cell viability is, setting by setting: (ICRF193 0 nM) > 45.8 µM; (ICRF193 200 nM) > 45.8 µM.
With `O=C(O)COc1ccccc1` [Phenoxyacetic acid], the IC50 cell viability (ICRF193 0 nM) was > 45.8 µM and the IC50 cell viability (ICRF193 200 nM) was > 45.8 µM.
In the case of `c1ccc(CC2=NCCN2)cc1` [Tolazoline hydrochloride], the IC50 cell viability by setting is: (ICRF193 0 nM) > 45.8 µM; (ICRF193 200 nM) > 45.8 µM.
Turning to `C[C@H](CCC(=O)O)[C@H]1CC[C@H]2[C@@H]3C(=O)C[C@@H]4CC(=O)CC[C@]4(C)[C@H]3CC(=O)[C@]12C` [Dehydrocholic acid], the IC50 cell viability by setting is: (ICRF193 0 nM) > 45.8 µM; (ICRF193 200 nM) > 45.8 µM.
In the case of `COC(=O)N[C@H](C(=O)N[C@@H](Cc1ccccc1)[C@@H](O)CN(Cc1ccc(-c2ccccn2)cc1)NC(=O)[C@@H](NC(=O)OC)C(C)(C)C)C(C)(C)C` [Atazanavir], the IC50 cell viability by setting is: (ICRF193 0 nM) > 45.8 µM; (ICRF193 200 nM) > 45.8 µM.
Regarding `C[C@H]1CNCCCN1S(=O)(=O)c1cccc2cncc(F)c12` [Ripasudil], the IC50 cell viability is > 45.8 µM (ICRF193 0 nM) and > 45.8 µM (ICRF193 200 nM).
Turning to `C[C@@H]1CN([C@H]2CC[C@](C#N)(c3ccc(F)cc3)CC2)CC[C@]1(C(=O)O)c1ccccc1` [Levocabastine hydrochloride], the IC50 cell viability runs as follows: (ICRF193 0 nM) > 45.8 µM; (ICRF193 200 nM) > 45.8 µM.
For `CC(=O)OC1CC2CCC1(C)C2(C)C` (configuration not stated) [BORNYL ACETATE], the IC50 cell viability runs as follows: (ICRF193 0 nM) > 45.8 µM; (ICRF193 200 nM) > 45.8 µM.
With `C=CCOc1ccc(CC(=O)O)cc1Cl` [Alclofenac], the IC50 cell viability is, setting by setting: (ICRF193 0 nM) > 45.8 µM; (ICRF193 200 nM) > 45.8 µM.
Regarding `CCO[C@@H](Cc1ccc(OCCc2ccc(OS(C)(=O)=O)cc2)cc1)C(=O)O` [Tesaglitazar], the IC50 cell viability runs as follows: (ICRF193 0 nM) > 45.8 µM; (ICRF193 200 nM) > 45.8 µM.
Turning to `O=C1[C@@H]2[C@H]3CC[C@H](C3)[C@@H]2C(=O)N1CCCCN1CCN(c2ncccn2)CC1` [Tandospirone], the IC50 cell viability is > 45.8 µM (ICRF193 0 nM) and > 45.8 µM (ICRF193 200 nM).
In the case of `O=C(O)c1ccccc1C(c1ccc(O)cc1)c1ccc(O)cc1` [Phenolphthalin], the IC50 cell viability is, setting by setting: (ICRF193 0 nM) > 45.8 µM; (ICRF193 200 nM) > 45.8 µM.
Turning to `Cc1c(F)c(N2CCNC(C)C2)cc2c1c(=O)c(C(=O)O)cn2C1CC1` (configuration not stated) [Grepafloxacin hydrochloride], the IC50 cell viability is > 45.8 µM (ICRF193 0 nM) and > 45.8 µM (ICRF193 200 nM).
Take `Oc1cc(O)cc(O)c1` [1,3,5-Trihydroxybenzene dihydrate]: the IC50 cell viability (ICRF193 0 nM) was > 45.8 µM and the IC50 cell viability (ICRF193 200 nM) was > 45.8 µM.
`O=C(O)C(Cl)(Cl)Cl` [Trichloroacetic acid]: the IC50 cell viability reads like this: (ICRF193 0 nM) > 45.8 µM; (ICRF193 200 nM) > 45.8 µM.
`C[C@]12C=CC(=O)C=C1CC[C@@H]1[C@@H]2C(=O)C[C@@]2(C)[C@H]1CC[C@]2(O)C(=O)CO` [Prednisone]: the IC50 cell viability is > 45.8 µM (ICRF193 0 nM) and > 45.8 µM (ICRF193 200 nM).
Consider `CC/C=C(\C(=O)N[C@@H]1C(=O)N2C(C(=O)OCOC(=O)C(C)(C)C)=C(COC(N)=O)CS[C@H]12)c1csc(N)n1` [Cefcapene pivoxil hydrochloride], for which the IC50 cell viability is > 45.8 µM (ICRF193 0 nM) and > 45.8 µM (ICRF193 200 nM).
For `CCOc1ccc(C[C@H]2NC(=O)CCSSC[C@@H](C(=O)N3CCC[C@H]3C(=O)N[C@@H](CCCN)C(=O)NCC(N)=O)NC(=O)[C@H](CC(N)=O)NC(=O)[C@H]([C@@H](C)O)NC(=O)[C@H]([C@@H](C)CC)NC2=O)cc1` [Atosiban], the IC50 cell viability is > 45.8 µM (ICRF193 0 nM) and > 45.8 µM (ICRF193 200 nM).
Regarding `Oc1ccc(Cl)c2cccnc12` [Cloxyquin], the IC50 cell viability is, setting by setting: (ICRF193 0 nM) > 45.8 µM; (ICRF193 200 nM) > 45.8 µM.
With `CC(=O)O[C@]1(C(C)=O)CC[C@H]2[C@@H]3C=C(Cl)C4=CC(=O)CC[C@]4(C)[C@H]3CC[C@@]21C` [Chlormadinone acetate], the IC50 cell viability (ICRF193 0 nM) is > 45.8 µM and the IC50 cell viability (ICRF193 200 nM) was > 45.8 µM.
Regarding `CC(C)(O/N=C(\C(=O)N[C@@H]1C(=O)N2C(C(=O)[O-])=C(C[n+]3ccccc3)CS[C@H]12)c1csc(N)n1)C(=O)O` [Ceftazidime], the IC50 cell viability was > 45.8 µM (ICRF193 0 nM) and > 45.8 µM (ICRF193 200 nM).
Turning to `O=C(O)CCCCC1CCSS1` (stereo not drawn) [alpha-Lipoic acid], the IC50 cell viability is > 45.8 µM (ICRF193 0 nM) and > 45.8 µM (ICRF193 200 nM).
Consider `CC(=O)CCC(=O)O` [Calcium levulinate], for which the IC50 cell viability was > 45.8 µM (ICRF193 0 nM) and > 45.8 µM (ICRF193 200 nM).
For `CN1C(C(=O)Nc2ccccn2)=C(O)c2ccccc2S1(=O)=O` [Piroxicam], the IC50 cell viability runs as follows: (ICRF193 0 nM) > 45.8 µM; (ICRF193 200 nM) > 45.8 µM.
With `Nc1ncnc2c1ncn2[C@@H]1O[C@H](CO)[C@@H](O)[C@H]1O` [Adenosine], the IC50 cell viability reads like this: (ICRF193 0 nM) > 45.8 µM; (ICRF193 200 nM) > 45.8 µM.
Take `CC1(C)[C@@H](O[C@H]2O[C@H](C(=O)O)[C@@H](O)[C@H](O)[C@H]2O[C@@H]2O[C@H](C(=O)O)[C@@H](O)[C@H](O)[C@H]2O)CC[C@]2(C)[C@H]3C(=O)C=C4[C@@H]5C[C@@](C)(C(=O)O)CC[C@]5(C)CC[C@@]4(C)[C@]3(C)CC[C@@H]12` [Ammonium Glycyrrhizinate]: the IC50 cell viability was > 45.8 µM (ICRF193 0 nM) and > 45.8 µM (ICRF193 200 nM).
In the case of `CC(=O)N(CC(O)CO)c1c(I)c(C(=O)NCCO)c(I)c(C(=O)NCC(O)CO)c1I` (configuration not stated) [Ioxilan], the IC50 cell viability was > 45.8 µM (ICRF193 0 nM) and > 45.8 µM (ICRF193 200 nM).
As to `N[C@@H](C(=O)N[C@@H]1C(=O)N2C(C(=O)O)=C(Cl)CS[C@H]12)c1ccccc1` [CEFACLOR], the IC50 cell viability reads like this: (ICRF193 0 nM) > 45.8 µM; (ICRF193 200 nM) > 45.8 µM.
As to `C=C1CCN([C@H](C)[C@](O)(Cn2cncn2)c2ccc(F)cc2F)CC1` [Efinaconazole], the IC50 cell viability is > 45.8 µM (ICRF193 0 nM) and > 45.8 µM (ICRF193 200 nM).
Take `COc1ccc(C(=O)c2ccccc2)c(O)c1` [2-Hydroxy-4-methoxybenzophenone]: the IC50 cell viability was > 45.8 µM (ICRF193 0 nM) and > 45.8 µM (ICRF193 200 nM).
Take `Cc1cccc(O)c1` [m-Cresol]: the IC50 cell viability by setting is: (ICRF193 0 nM) > 45.8 µM; (ICRF193 200 nM) > 45.8 µM.
As for `CC(=O)OCC(=O)[C@H]1CC[C@H]2[C@@H]3CCC4=CC(=O)CC[C@]4(C)[C@H]3CC[C@]12C` [Deoxycorticosterone acetate], the IC50 cell viability was > 45.8 µM (ICRF193 0 nM) and > 45.8 µM (ICRF193 200 nM).
On to `Cc1ccc(C2(O)CCN(CCCC(=O)c3ccc(F)cc3)CC2)cc1` [Moperone], for which the IC50 cell viability is, setting by setting: (ICRF193 0 nM) > 45.8 µM; (ICRF193 200 nM) > 45.8 µM.
For the compound `C=CCN1CC[C@]23c4c5ccc(O)c4O[C@H]2[C@@H](OCCOCCOCCOCCOCCOCCOCCOC)CC[C@@]3(O)[C@H]1C5` [Naloxegol (oxalate)], the IC50 cell viability by setting is: (ICRF193 0 nM) > 45.8 µM; (ICRF193 200 nM) > 45.8 µM.
As to `CCCc1ncc(C[n+]2ccccc2C)c(N)n1` [Amprolium hydrochloride], the IC50 cell viability reads like this: (ICRF193 0 nM) > 45.8 µM; (ICRF193 200 nM) > 45.8 µM.
Consider `C[C@@H]1NC(=O)[C@@H](N)CNC(=O)[C@H]([C@H]2CCNC(N)=N2)NC(=O)/C(=C/NC(N)=O)NC(=O)[C@H](CNC(=O)C[C@@H](N)CCCN)NC1=O` [Capreomycin IB], for which the IC50 cell viability (ICRF193 0 nM) is > 45.8 µM and the IC50 cell viability (ICRF193 200 nM) was > 45.8 µM.
For the compound `Nc1cccc2c1C(=O)N(C1CCC(=O)NC1=O)C2=O` (configuration not stated) [Pomalidomide], the IC50 cell viability by setting is: (ICRF193 0 nM) > 45.8 µM; (ICRF193 200 nM) > 45.8 µM.
